Measurements reported in ChEMBL document CHEMBL1201862, “PubChem BioAssay data set” (2004).
Calls of active or inactive are those of the source.

Key:
[1] = biological target: Ras and Rab interactor 1/Tyrosine-protein kinase ABL1 (Homo sapiens, UniProt P00519+Q13671); format: functional;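 note: biochemical TR-FRET dose-response test measuring inhibition of binding between Rin1 and Abl proteins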
HEK293 [2] = test: cells; details: Homo sapiens
HEK293 [3] = test: cells; details: Homo sapiens; remark: listed apart in the source
HEK293 [4] = test: cells; format: functional, cell-based; details: Homo sapiens
[5] = biological target: T1, Nuclear receptor subfamily 0 group B member 1 (Homo sapiens, UniProt P51843); test: Luminescence-based cell-based high throughput dose response assay for inhibitors of the orphan nuclear receptor subfamily 0, group B, member 1 (DAX1; NR0B1). [Related pubchem assays (depositor defined):AID504766, AID504790]; format: functional
T1 sequence (P51843 whole entry): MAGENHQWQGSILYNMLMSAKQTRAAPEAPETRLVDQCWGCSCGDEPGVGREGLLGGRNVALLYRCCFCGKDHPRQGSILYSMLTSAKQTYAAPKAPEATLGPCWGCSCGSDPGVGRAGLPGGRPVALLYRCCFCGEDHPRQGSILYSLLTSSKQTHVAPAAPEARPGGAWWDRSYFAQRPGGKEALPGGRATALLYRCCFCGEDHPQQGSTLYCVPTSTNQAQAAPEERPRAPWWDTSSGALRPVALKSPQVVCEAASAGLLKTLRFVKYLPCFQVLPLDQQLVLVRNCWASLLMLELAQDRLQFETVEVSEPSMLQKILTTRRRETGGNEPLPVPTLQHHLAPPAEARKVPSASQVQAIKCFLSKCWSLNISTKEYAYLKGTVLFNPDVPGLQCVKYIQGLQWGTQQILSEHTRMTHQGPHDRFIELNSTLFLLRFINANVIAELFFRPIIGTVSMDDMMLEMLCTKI

[6] = biological target: Glycogen synthase kinase-3 alpha (Homo sapiens, UniProt P49840); format: functional;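 note: GSK3A result taken from a broad kinome-wide kinase panel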
[7] = biological target: Calcium/calmodulin-dependent protein kinase type II subunit beta (Homo sapiens, UniProt Q13554); format: functional
[8] = biological target: Glycogen synthase kinase-3 beta (Homo sapiens, UniProt P49841); format: functional;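 note: value comes from a broad kinome profiling panel, with GSK3B as the panel member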
[9] = biological target: Dual specificity tyrosine-phosphorylation-regulated kinase 1A (Homo sapiens, UniProt Q13627); format: functional;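 note: measured against DYRK1A as one member of a broad kinome profiling panel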
[10] = biological target: Dual specificity protein kinase CLK1 (Homo sapiens, UniProt P49759); test: CLK1 kinase inhibitors, off-target check, dose response, selectivity assay for Dyrk1A inhibitor project, biochemical, cherry-picked samples (AID 588811)
[11] = Shn3 3'UTR reporter inhibitors, dose response, cell-based, Clone20 osteoblasts, firefly luciferase, cherry-picked (AID 624132); format: functional;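 note: firefly luciferase luminescence from reporter carrying the Shn3 3'UTR in osteoblasts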
[12] = HepG2 cell cytotoxicity, dose response, cytotoxicity control for Shn3 inhibitor project, CellTiter-Glo, cherry-picked (AID 624134); format: functional, cell-based
[13] = control 3'UTR Renilla luciferase suppression, dose response, counter-screen for Shn3 inhibitor project, cell-based, Clone20-Shn3RL, cherry-picked (AID 624133); format: functional
[14] = biological target: T2, High affinity choline transporter 1 (Homo sapiens, UniProt Q9GZV3); test: CHT activators, dose response, cell-based, 10-point CRC, membrane potential dye (AID 602376); format: functional
T2 sequence (Q9GZV3 whole entry): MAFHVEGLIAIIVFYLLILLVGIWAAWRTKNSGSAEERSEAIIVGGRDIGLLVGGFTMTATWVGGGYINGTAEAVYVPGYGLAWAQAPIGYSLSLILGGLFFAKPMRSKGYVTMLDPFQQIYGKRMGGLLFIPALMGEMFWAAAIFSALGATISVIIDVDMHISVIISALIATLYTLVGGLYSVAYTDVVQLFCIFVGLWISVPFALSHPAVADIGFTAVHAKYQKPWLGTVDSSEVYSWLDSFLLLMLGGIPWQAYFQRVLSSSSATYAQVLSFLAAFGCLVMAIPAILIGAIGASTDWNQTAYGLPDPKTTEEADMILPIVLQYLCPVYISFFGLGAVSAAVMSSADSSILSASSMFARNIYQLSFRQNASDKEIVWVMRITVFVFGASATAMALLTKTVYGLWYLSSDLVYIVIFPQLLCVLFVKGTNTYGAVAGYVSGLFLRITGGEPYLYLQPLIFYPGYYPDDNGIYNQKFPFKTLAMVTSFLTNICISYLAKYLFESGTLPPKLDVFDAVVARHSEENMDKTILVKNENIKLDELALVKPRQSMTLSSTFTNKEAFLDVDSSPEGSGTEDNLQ

[15] = biological target: Tyrosine-protein kinase JAK3 (Homo sapiens, UniProt P52333); format: functional
[16] = biological target: BDNF/NT-3 growth factors receptor (Homo sapiens, UniProt Q16620); format: functional;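 note: NTRK2 measured as one member of a broad kinome-wide kinase profiling panel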
[17] = biological target: Calcium/calmodulin-dependent protein kinase type II subunit alpha (Homo sapiens, UniProt Q9UQM7); test: Navigating the Kinome. Panel member name: CAMK2A; format: functional
Chain of Calcium/calmodulin-dependent protein kinase type II subunit alpha (Q9UQM7 whole entry): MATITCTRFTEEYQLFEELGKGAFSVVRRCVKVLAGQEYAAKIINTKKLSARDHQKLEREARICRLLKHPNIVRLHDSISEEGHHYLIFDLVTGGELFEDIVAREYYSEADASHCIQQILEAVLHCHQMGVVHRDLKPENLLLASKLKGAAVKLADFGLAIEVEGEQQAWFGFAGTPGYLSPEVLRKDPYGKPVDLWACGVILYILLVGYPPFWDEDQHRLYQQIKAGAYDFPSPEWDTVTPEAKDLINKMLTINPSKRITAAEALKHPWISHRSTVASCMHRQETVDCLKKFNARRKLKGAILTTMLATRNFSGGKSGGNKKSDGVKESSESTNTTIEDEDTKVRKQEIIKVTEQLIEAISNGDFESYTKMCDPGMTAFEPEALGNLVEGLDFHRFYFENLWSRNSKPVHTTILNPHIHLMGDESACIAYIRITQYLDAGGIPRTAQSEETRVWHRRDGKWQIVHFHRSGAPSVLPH

Chain of Ras and Rab interactor 1/Tyrosine-protein kinase ABL1 (P00519 whole entry): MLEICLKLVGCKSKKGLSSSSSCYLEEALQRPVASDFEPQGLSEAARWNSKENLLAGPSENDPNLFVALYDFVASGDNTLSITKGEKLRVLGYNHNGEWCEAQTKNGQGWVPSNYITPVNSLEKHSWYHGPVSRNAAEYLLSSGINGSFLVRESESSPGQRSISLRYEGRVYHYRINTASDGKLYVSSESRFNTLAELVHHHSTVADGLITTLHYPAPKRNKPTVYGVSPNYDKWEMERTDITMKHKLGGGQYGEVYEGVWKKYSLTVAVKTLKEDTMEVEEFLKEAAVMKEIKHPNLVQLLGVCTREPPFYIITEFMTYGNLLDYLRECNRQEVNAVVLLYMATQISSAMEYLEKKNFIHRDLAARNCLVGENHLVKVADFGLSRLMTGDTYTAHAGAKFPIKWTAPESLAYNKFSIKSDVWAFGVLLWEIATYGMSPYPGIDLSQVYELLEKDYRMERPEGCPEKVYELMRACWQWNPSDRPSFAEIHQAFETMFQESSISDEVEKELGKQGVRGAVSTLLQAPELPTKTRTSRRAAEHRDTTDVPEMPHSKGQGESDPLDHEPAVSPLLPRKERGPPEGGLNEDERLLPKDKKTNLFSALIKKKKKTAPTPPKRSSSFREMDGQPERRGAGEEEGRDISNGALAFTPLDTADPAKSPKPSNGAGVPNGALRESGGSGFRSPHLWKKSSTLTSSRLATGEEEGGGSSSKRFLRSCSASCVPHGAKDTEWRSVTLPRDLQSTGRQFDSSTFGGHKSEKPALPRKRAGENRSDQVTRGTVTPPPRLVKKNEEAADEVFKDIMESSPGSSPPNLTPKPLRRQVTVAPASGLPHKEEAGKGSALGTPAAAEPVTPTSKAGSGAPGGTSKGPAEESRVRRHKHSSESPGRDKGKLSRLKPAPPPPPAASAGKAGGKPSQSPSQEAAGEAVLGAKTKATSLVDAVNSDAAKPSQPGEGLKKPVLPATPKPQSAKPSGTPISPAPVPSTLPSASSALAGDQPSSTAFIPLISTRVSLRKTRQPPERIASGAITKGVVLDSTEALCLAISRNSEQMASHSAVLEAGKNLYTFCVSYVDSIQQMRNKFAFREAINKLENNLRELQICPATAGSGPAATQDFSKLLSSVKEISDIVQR
Chain of Ras and Rab interactor 1/Tyrosine-protein kinase ABL1 (Q13671 whole entry): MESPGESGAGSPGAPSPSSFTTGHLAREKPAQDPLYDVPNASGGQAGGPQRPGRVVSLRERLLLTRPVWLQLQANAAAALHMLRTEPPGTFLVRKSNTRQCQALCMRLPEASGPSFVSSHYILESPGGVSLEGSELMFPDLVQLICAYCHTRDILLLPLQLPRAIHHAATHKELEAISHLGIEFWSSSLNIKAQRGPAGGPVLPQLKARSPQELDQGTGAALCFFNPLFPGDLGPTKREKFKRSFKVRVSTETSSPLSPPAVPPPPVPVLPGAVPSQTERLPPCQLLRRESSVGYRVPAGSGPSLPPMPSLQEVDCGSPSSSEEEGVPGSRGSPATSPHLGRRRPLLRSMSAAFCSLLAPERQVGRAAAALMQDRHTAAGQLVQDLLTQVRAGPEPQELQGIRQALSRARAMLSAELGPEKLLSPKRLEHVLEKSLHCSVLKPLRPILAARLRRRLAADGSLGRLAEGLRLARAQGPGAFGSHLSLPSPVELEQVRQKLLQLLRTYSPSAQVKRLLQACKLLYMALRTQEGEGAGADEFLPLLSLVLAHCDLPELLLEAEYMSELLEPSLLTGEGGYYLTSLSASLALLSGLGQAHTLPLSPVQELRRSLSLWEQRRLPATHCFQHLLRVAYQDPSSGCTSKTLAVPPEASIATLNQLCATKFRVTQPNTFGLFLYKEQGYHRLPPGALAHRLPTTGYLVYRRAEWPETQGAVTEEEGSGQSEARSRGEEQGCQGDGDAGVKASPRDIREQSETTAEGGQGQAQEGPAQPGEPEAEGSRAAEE
Chain of Calcium/calmodulin-dependent protein kinase type II subunit beta (Q13554 whole entry): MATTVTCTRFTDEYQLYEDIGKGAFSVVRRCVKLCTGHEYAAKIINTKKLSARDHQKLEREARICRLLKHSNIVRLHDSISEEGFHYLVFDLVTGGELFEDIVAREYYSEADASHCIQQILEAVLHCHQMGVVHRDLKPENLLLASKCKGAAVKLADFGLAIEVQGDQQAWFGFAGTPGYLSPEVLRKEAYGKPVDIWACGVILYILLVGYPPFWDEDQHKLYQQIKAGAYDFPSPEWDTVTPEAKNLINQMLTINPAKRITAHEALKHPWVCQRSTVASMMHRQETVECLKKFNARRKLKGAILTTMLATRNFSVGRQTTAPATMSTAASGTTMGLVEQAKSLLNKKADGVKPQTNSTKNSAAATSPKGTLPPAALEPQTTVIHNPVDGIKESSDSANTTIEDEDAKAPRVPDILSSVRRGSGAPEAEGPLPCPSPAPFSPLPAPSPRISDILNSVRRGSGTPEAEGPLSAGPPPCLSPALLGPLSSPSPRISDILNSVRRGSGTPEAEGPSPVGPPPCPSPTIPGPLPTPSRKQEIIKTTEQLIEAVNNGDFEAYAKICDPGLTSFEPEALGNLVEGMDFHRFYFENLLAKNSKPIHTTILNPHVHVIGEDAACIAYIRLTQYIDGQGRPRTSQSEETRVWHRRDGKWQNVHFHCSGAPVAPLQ
Chain of BDNF/NT-3 growth factors receptor (Q16620 whole entry): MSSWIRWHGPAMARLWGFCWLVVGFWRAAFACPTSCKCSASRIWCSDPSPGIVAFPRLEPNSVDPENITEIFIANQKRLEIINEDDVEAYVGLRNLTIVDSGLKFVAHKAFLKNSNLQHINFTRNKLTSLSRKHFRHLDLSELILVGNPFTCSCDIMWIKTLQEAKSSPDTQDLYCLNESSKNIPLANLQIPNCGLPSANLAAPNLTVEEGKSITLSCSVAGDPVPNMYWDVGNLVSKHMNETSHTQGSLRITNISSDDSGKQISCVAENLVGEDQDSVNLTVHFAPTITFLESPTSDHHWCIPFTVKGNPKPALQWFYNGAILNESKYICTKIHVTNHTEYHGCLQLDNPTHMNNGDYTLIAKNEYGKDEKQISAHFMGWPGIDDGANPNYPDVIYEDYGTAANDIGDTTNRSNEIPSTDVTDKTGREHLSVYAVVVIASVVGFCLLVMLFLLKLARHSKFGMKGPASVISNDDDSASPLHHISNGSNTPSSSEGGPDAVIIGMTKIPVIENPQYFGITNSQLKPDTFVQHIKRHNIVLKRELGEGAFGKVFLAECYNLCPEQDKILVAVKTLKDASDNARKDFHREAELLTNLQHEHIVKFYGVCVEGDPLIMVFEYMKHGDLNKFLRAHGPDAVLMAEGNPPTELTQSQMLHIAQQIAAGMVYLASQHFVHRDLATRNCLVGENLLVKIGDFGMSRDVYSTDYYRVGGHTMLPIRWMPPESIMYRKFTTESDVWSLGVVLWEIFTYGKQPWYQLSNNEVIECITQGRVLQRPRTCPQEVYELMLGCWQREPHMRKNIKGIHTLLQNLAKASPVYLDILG
Chain of Tyrosine-protein kinase JAK3 (P52333 whole entry): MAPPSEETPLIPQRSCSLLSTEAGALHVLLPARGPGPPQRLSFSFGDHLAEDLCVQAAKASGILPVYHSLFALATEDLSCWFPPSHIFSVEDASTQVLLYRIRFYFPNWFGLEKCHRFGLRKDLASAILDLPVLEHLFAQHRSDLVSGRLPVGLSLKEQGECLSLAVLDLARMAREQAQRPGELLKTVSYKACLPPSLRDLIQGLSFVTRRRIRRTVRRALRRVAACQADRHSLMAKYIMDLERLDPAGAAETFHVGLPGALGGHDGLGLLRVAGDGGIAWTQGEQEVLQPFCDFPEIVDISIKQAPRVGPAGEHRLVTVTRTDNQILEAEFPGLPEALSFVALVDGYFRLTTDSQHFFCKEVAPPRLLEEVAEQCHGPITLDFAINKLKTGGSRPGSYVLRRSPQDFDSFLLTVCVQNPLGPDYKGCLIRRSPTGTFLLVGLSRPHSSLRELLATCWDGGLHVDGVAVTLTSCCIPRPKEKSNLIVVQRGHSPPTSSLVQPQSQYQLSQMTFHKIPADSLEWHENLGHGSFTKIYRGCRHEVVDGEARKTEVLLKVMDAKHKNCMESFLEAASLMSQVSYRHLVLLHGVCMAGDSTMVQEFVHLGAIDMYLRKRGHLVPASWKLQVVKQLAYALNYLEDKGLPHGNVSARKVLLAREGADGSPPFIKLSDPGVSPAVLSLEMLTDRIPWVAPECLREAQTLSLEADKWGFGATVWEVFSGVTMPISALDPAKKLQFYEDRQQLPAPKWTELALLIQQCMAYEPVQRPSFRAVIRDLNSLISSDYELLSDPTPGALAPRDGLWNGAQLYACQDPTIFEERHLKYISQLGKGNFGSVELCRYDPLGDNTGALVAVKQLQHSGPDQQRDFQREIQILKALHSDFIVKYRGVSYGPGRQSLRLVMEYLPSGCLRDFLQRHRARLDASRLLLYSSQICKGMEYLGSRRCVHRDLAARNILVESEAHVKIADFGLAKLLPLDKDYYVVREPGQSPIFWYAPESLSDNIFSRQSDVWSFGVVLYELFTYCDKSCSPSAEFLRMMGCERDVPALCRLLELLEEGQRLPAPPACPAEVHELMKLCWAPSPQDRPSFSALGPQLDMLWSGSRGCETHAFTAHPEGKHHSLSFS

With `CC[C@]12c3[nH]c4ccc(OC)cc4c3CCN1C(=O)C(CC(=O)NCC13C[C@H]4C[C@@H](C1)C[C@@H](C3)C4)C[C@@H]2C(=O)N1CCN(C(=O)c2ccco2)CC1` (some centres not stated) the IC50 [1] was 4.2 µM (active), the EC50 (HEK293 [2]) was > 59.6 µM (inactive) and the EC50 (HEK293 [3]) was > 59.6 µM (inactive).
In the case of `O=C(NCc1ccco1)/C(=C\C=C\c1ccccc1)NC(=O)c1ccco1`, the IC50 (HEK293 [4]) was > 67.5 µM (inactive) and the IC50 [5] was > 67.5 µM (inactive).
For `O=C1CN=C(c2cccc(Cl)c2)c2c(sc3c2CCCC3)N1`, the Ki [6] was 3.98 µM (active), the Ki [7] was 6.31 µM (active) and the Ki [8] was 3.16 µM (active). For the same compound, the Ki [9] was 2.51 µM (active).
In the case of `c1nc(NCC2CCCO2)c2cc(-c3ccc4c(c3)OCO4)ccc2n1` (configuration not stated), the AC50 [10] was 0.0113 µM (active).
With `CCN(CC)CCn1c(=N)n(CC(O)COc2cccc(C)c2)c2ccccc21` (configuration not stated) the AC50 [11] was 4.39 µM (active), the AC50 [12] was 21.2 µM (active) and the AC50 [13] was 7.45 µM (active). The EC50 [14] was 12.4 µM (active).
With `Clc1cccc(Nc2nc(N3CCOCC3)nc(-n3cccn3)n2)c1` the Ki [15] was 3.16 µM (active), the Ki [16] was 3.16 µM (active) and the Ki [17] was 2.51 µM (active).
